Measurements reported in paper PMC4450870 (Pain, 2015).

How the values were obtained:
Type in all cases: cell-based
KCNQ2/KCNQ3 = KCNQ2/KCNQ3 (Rattus norvegicus, UniProt O88943+O88944); test: whole-cell patch clamp, transfected CHO cells; conditions: activator, −10 mV test potential, room temperature, bath pH 7.4
KCNQ2 [1] = target: KCNQ2 (Rattus norvegicus, UniProt O88943, R198A); test: whole-cell voltage clamp, CHO cells
KCNQ2 [2] = target: KCNQ2 (Rattus norvegicus, UniProt O88943); test: whole-cell voltage clamp, CHO cells
Chain of KCNQ2 (Rattus norvegicus, UniProt O88943) (O88943 whole entry): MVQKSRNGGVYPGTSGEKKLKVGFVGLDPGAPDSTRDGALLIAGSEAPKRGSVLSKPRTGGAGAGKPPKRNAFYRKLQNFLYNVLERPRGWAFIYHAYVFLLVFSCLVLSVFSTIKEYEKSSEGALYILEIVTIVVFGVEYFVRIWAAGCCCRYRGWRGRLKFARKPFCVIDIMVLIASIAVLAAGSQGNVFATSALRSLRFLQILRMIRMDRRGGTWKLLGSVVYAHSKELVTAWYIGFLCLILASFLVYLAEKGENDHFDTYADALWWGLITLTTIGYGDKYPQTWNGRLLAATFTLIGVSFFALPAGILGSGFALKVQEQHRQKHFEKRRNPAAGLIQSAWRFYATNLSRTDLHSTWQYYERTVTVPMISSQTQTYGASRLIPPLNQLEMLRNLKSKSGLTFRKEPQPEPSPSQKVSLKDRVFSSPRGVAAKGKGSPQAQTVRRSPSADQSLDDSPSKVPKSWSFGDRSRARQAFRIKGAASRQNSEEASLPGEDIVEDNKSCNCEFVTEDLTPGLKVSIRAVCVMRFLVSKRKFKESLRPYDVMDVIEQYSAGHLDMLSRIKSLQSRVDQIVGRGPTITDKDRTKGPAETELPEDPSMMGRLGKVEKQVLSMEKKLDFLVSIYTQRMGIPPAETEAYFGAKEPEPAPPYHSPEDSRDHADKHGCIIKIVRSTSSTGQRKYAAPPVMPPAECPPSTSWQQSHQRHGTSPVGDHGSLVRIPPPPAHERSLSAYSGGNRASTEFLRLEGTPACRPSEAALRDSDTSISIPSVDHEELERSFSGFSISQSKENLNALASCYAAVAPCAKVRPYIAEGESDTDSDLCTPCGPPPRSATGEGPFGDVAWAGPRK

Chain of KCNQ2 (Rattus norvegicus, UniProt O88943, R198A) (O88943 whole entry R198A): as the sequence (O88943 whole entry) above, with R198A counted along it
Chain of KCNQ2/KCNQ3 (O88943 whole entry): as the sequence (O88943 whole entry) above
Chain of KCNQ2/KCNQ3 (O88944 whole entry): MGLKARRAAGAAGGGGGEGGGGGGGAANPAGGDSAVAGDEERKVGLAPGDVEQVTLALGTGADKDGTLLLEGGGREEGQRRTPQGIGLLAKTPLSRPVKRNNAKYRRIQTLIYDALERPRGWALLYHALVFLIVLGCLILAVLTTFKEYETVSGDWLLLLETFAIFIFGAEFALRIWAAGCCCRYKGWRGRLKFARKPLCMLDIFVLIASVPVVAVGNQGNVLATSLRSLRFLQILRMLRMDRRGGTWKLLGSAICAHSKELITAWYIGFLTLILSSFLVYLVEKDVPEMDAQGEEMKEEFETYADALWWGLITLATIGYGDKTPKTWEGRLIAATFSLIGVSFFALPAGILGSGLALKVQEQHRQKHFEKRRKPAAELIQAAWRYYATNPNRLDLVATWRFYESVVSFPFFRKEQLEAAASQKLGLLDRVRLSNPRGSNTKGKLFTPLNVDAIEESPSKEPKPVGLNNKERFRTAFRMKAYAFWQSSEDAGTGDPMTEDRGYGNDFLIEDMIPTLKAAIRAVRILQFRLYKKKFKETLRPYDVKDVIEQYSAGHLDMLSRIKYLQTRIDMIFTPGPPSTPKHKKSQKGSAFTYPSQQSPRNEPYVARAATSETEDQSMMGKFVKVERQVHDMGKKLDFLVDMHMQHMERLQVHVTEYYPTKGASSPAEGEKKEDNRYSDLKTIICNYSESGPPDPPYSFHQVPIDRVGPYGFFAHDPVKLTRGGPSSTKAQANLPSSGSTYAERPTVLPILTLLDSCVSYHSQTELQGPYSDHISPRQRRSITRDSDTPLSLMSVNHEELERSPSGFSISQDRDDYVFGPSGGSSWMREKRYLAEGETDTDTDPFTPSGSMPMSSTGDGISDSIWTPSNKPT

CCc1oc2ccccc2c1C(=O)c1cc(Br)c(O)c(Br)c1 [benzbromarone]
fold increase of outward current at 10 μM (KCNQ2/KCNQ3): ~ 1.64 ± 0.08 fold
EC50 (KCNQ2 [1]): 28.2 ± 1.32 µM
EC50 (KCNQ2 [2]): 4.32 ± 1.4 µM
